How the values were obtained:
Assay type in all cases: cell-based
human dermal fibroblasts = experiment: Senescence associated β-galactosidase activity in fibroblasts after oxidising stress (FDG fluorimetry); conditions: for β-galactosidase relative activity: after oxidising stress, n = 4
Protocol: Principle: Proliferative human dermal fibroblasts were contacted or not with the GGP for 72 hours in a growth medium. After this first incubation, the cells were subjected for 5 days to an oxidative stress daily, one hour each, in a basic medium, common to all cultures. This stress is known to create a SIPS and to induce a strong increase in β-galactosidase activity in the stressed culture compared to an unstressed culture. Between two stress cells are returned to the growth medium with or without the substance tested. After the fifth stress, β-galactosidase activity is evaluated.
Evaluation of β-galactosidase activity is done after fixing the layers. They are put in contact with a substrate of β-galactosidase nonfluorescent FDG (fluorescein di-β-galactopyranoside), which will release a fluorescent compound upon hydrolysis by β-galactosidase. The emitted fluorescence is quantified in a fluorometer. It will increase with the amount of senescent cells present in culture. The relative activity of β-galactosidase thus found is 2974+/−957 UFA/million cells in a proliferative culture and increases by a factor 5 (p<0.01) in a culture little to not proliferative.

tyrosinase = target: T1, tyrosinase (Homo sapiens, UniProt P14679); experiment: Residual tyrosinase activity in human melanocytes; conditions: for tyrosinase activity: 5 days, n = 4
T1 construct: endogenous in cells; host or cells: human melanocytes
T1 sequence (P14679 19-529): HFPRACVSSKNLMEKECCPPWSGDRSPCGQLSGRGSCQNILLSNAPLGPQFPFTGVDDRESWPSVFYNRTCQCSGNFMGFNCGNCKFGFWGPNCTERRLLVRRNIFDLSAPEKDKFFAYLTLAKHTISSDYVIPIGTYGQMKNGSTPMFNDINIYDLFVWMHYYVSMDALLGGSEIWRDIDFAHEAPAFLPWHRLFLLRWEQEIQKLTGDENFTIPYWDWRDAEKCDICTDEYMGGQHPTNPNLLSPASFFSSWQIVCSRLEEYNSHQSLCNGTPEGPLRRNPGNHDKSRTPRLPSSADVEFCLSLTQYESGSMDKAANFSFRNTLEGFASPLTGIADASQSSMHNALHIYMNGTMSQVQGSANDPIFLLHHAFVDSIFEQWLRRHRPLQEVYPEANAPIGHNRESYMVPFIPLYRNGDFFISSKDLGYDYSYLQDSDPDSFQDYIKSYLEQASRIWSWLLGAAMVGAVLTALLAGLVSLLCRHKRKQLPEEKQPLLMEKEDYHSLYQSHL
Protocol: (§1) Principle: Human melanocytes are seeded and placed in contact with the GGP for 5 days. After incubation, the residual tyrosinase activity and total melanin content were measured in cell homogenates, and then divided by the number of cells (melanin) or to the protein amount (tyrosinase).

presenescent fibroblasts = experiment: Mitochondrial membrane potential of presenescent fibroblasts (dye ratio λ520/λ590); conditions: for Improvement of the respiration potential / Change with regard to non stressed young cells: with oxidative stress; for Change with regard to non stressed young cells: control −100%
From the text: It is possible to measure the membrane potential through a specific membrane dye. Depending on the level of the membrane potential, this dye is rather present as monomer (emission fluorescence at 520 nm) or rather in the multimetric form (fluorescence emission at 590 nm). High membrane potential promotes a multimetric form.
The ratio λ520/λ590 varies inversely with the membrane potential. The lower the ratio is, the higher the membrane potential is. The increase in the ratio thus reflects a decrease in membrane potential. The ratio λ520/λ590 for young and proliferating cells is 2.97+/−0.17.
[…] After this period, the membrane potential of half of the cultures was measured.
The other half of the cultures underwent an oxidative stress (hydrogen peroxide) before measuring their membrane potential.

human melanocytes = experiment: Melanin content of human melanocytes; conditions: for Melanin content: 5 days, n = 4
Protocol: as §1

human fibroblasts = experiment: Lipidic peroxidation of fibroblast cellular membranes after UVA stress (MDA, TBARS method); conditions: for MDA concentration: post UVA stress
Protocol: Principle: human fibroblasts are grown to confluence and then placed or not in contact with the GGP for 72 hours. Following this contact, the GGP is removed and the cells are exposed to oxidative stress (UVA). After a further incubation with or without the GGP, malonaldehyde (MDA) is determined by the TBARS method (Thiobarbituric Acid Reactive Substances) and the value obtained divided by the amount of cellular protein.

[1] = tested on: Normal human dermal fibroblasts; experiment: Mean telomere length of fibroblasts in natural senescence (real-time quantitative PCR); conditions: 1.65 ppm
From the text: The applicant has performed the average length measurement of the telomeres of a culture by a rapid method using PCR (Polymerase Chain Reaction) real-time quantitative.
This method relies on the use of two oligonucleotide primers specific of the telomeric repeat sequence (TTAGGG) and thus capable of hybridizing themselves to each of the two complementary strands of telomeric DNA, and then able to be amplified during the PCR cycles proportionally to the average length of telomeres of the genomic DNA of a given culture. A fluorescent molecule, intercalated into DNA double strand, is used to quantify the phenomenon (hybridization+amplification) at the end of each cycle. The parameter for evaluating the significance of this phenomenon is the Ct, cycle number of hybridization amplification necessary to reach a given fluorescence threshold above background noise.
Each Ct will be converted into an average length of telomeres, with a reference range obtained with successive dilutions from a standard solution of a synthetic oligonucleotide of 84 bases, consisting of 14 repeats of the TTAGGG sequence, each of these dilutions (or point range) being subjected to real-time quantitative PCR.
To be accurate, the assessment must take into account the number of genomes present. The latter will be appreciated by a PCR conducted in parallel with a control gene, 36B4, encoding a ribosomal phosphoprotein with two primers (oligonucleotides) specific for this gene. The Ct obtained in this PCR will be converted into a number of genomes using a standard range made from an oligonucleotide of 75 bases, representing the amplicon obtained with primers specific to 36B4.
Therefore is obtained for each total DNA extracts from a given culture, an average length of telomere per genome.
Principle: Normal human dermal fibroblasts are grown on several cell passages, in contact or not with the GGP until a strong slowdown and little or not proliferative cells. At this stage, cultures are stopped, DNA extracted and the average telomere length measured for each culture.

CC(C)=CCC/C(C)=C/CC/C(C)=C/CC/C(C)=C/CCC(C)O (centres unmarked) [GGP, 6,10,14,18-tetramethylnonadeca-5,9,13,17-tetraen-2-ol]
Change with regard to control (β-galactosidase) (human dermal fibroblasts; 3 ppm): −35%; p = 0.05
β-galactosidase relative activity (human dermal fibroblasts; 3 ppm): 3702 +/− 992 FAU/10^6 cells
Change with regard to control (β-galactosidase) (human dermal fibroblasts; 5 ppm): −51%; p < 0.02
β-galactosidase relative activity (human dermal fibroblasts; 5 ppm): 2789 +/− 803 FAU/10^6 cells
Change (%) of tyrosinase activity vs control (tyrosinase; 1 ppm): −11%; p < 0.05
tyrosinase activity (tyrosinase; 1 ppm): 6.196 +/− 0.318 U/μg prot
Change (%) of tyrosinase activity vs control (tyrosinase; 3 ppm): −29%; p < 0.01
tyrosinase activity (tyrosinase; 3 ppm): 4.956 +/− 0.129 U/μg prot
Change (%) of tyrosinase activity vs control (tyrosinase; 5 ppm): −49%; p < 0.01
tyrosinase activity (tyrosinase; 5 ppm): 3.588 +/− 0.248 U/μg prot
% of protection of the respiration potential (presenescent fibroblasts; 3 ppm, no stress): +22%; nsd
ΔΨ loss with regard to non stressed young cells (presenescent fibroblasts; 3 ppm, one week, no stress): 1.11 +/− 0.33
Improvement of the respiration potential (presenescent fibroblasts; 3 ppm): +35%; p < 0.05
ΔΨ loss with regard to non stressed young cells (presenescent fibroblasts; 3 ppm, with oxidative stress (hydrogen peroxide)): 3.57 +/− 0.69
Change with regard to non stressed young cells (presenescent fibroblasts; 3 ppm): −65%
% of protection of the respiration potential (presenescent fibroblasts; 5 ppm, no stress): +41%; p < 0.01
ΔΨ loss with regard to non stressed young cells (presenescent fibroblasts; 5 ppm, one week, no stress): 0.84 +/− 0.08
Improvement of the respiration potential (presenescent fibroblasts; 5 ppm): +63%; p < 0.01
ΔΨ loss with regard to non stressed young cells (presenescent fibroblasts; 5 ppm, with oxidative stress (hydrogen peroxide)): 2.03 +/− 0.69
Change with regard to non stressed young cells (presenescent fibroblasts; 5 ppm): −37%
Change (%) of melanin content vs control (human melanocytes; 1 ppm): −4%; nsd
Melanin content (human melanocytes; 1 ppm): 46.6 +/− 2.4 μg/mL/10^6 cell
Change (%) of melanin content vs control (human melanocytes; 3 ppm): −36%; p < 0.01
Melanin content (human melanocytes; 3 ppm): 31.3 +/− 1.4 μg/mL/10^6 cell
Change (%) of melanin content vs control (human melanocytes; 5 ppm): −59%; p < 0.01
Melanin content (human melanocytes; 5 ppm): 20.2 +/− 1.3 μg/mL/10^6 cell
% Change of MDA vs post-stress control (human fibroblasts; 3 ppm): −20%; p < 0.01
MDA concentration (human fibroblasts; 3 ppm): 881 +/− 36 nM/mg protein
% Change of MDA vs post-stress control (human fibroblasts; 5 ppm): −34%; p < 0.01
MDA concentration (human fibroblasts; 5 ppm): 727 +/− 39 nM/mg protein
% Change of MDA vs post-stress control (human fibroblasts; 7 ppm): −53%; p < 0.01
MDA concentration (human fibroblasts; 7 ppm): 515 +/− 11 nM/mg protein
Mean telomere length ([1]; presenescent cells, n = 3): 8.35 +/− 0.75 kb/genome
protection against natural telomere erosion (length vs control) ([1]; vs presenescent control): +1.45 kb →
Telomere erosion due to aging ([1]; vs proliferative cells): −2.31 kb; nsd kb/genome

Source: patent US9126060B2, “Cosmetic use of geranylgeranyl-2-propanol” (SEDERMA, priority 2010, dated 2015)
